# Laboratory results taken from PMC7751951 (Cancer chemotherapy and pharmacology, 2015).
# Key:
# [1] = single-agent docetaxel 150–235 mg/m^2, children and adolescents with refractory solid tumors; cited from earlier work
# [2] = Toxicity, DLT and MTD in phase I trial
# [3] = test system: recurrent or refractory solid tumors; test: Tumor response; assay type: in vivo, human (children and adolescents)
# [4] = early clinical trials in adults; cited from earlier work
# [5] = test system: Breast Cancer Resistance Protein (BCRP/ABCG2); settings: cited from earlier work
# [6] = adults, 2 mg/kg IV over 30 min; cited from earlier work
# [7] = human, in vivo, 21 days
# [8] = cited from earlier work
# [9] = test system: Pgp; settings: adults, 2 mg/kg IV over 30 min; rhodamine uptake in CD56+ lymphocytes; cited from earlier work
# [10] = test system: ATPase activity of the Pgp drug efflux pump; settings: introduction statement, no reference given; cited from earlier work
# [11] = Plasma pharmacokinetics of tariquidar alone; assay type: in vivo, human (children and adolescents); settings: human, intravenous, tariquidar in combination with chemotherapy, at all dose levels
smiles,measurement,setting,value
CC(=O)O[C@@]12CO[C@@H]1C[C@H](O)[C@@]1(C)C(=O)[C@H](O)C3=C(C)[C@@H](OC(=O)[C@H](O)[C@@H](NC(=O)OC(C)(C)C)c4ccccc4)C[C@@](O)([C@@H](OC(=O)c4ccccc4)[C@H]21)C3(C)C [Docetaxel],"platelet counts less than 50,000/μL",[1],not observed
same,"participants with grade 3 thrombocytopenia (platelet count ≥10,000, <50,000/μL)","[2]; docetaxel in combination with tariquidar, three of nine participants",33%
COc1cccc2c1C(=O)c1c(O)c3c(c(O)c1C2=O)C[C@@](O)(C(=O)CO)C[C@@H]3O[C@H]1C[C@H](N)[C@H](O)[C@H](C)O1 [Doxorubicin],Response,"[3]; person, metastatic adrenocortical carcinoma, two cycles of tariquidar in combination with doxorubicin",partial response
same,Best response [cycle],"[3]; subject 014, rhabdomyosarcoma, with tariquidar 2 mg/kg",partial response
same,increase of systemic exposure in combination with tariquidar,[4],26%
COc1cc2c(cc1OC)CN(CCc1ccc(NC(=O)c3cc(OC)c(OC)cc3NC(=O)c3cnc4ccccc4c3)cc1)CC2 [Tariquidar],inhibition of Breast Cancer Resistance Protein (BCRP/ABCG2),[5],inhibit
same,area under the concentration time curve (AUC0–48),[6],12.6 µM·h
same,clearance,[6],160 mL/min/m^2
same,half-life,[6],26 h
same,"tariquidar-related dysgeusia (n = 3), grade",[7],1
same,"tariquidar-related hypotension (n = 2), grade",[7],2
same,"tariquidar-related nausea (n = 1), grade",[7],1
same,"tariquidar-related peripheral edema (n = 1), grade",[7],2
same,"tariquidar-related pruritus (n = 1), grade",[7],1
same,tolerability in adults,[8],well tolerated
same,time for which maximum inhibition of Pgp was maintained,[9],24 h
same,maximum tolerated dose of tariquidar,[2]; escalation up to 2 mg/kg,No maximum tolerated dose was achieved
same,effect on ATPase activity of the Pgp drug efflux pump,[10],inhibits
same,Cmax,[11],> 2000 nM
CCC1=C[C@@H]2CN(C1)Cc1c([nH]c3ccccc13)[C@@](C(=O)OC)(c1cc3c(cc1OC)N(C)[C@H]1[C@@](O)(C(=O)OC)[C@H](OC(C)=O)[C@]4(CC)C=CCN5CC[C@]31[C@@H]54)C2 [Vinorelbine],Best response [cycle],"[3]; subject 009, pancreatoblastoma, with tariquidar 1.5 mg/kg",complete radiographic response
same,change in pharmacokinetics in combination with tariquidar,[4],No change
CC(=O)O[C@H]1C(=O)[C@@]2(C)[C@H]([C@H](OC(=O)c3ccccc3)[C@]3(O)C[C@H](OC(=O)[C@H](O)[C@@H](NC(=O)c4ccccc4)c4ccccc4)C(C)=C1C3(C)C)[C@]1(OC(C)=O)CO[C@@H]1C[C@@H]2O [paclitaxel],increase of systemic exposure in combination with tariquidar,[4],44%
